Values quoted from earlier work as cited in patent US20240398793A1, “Methods of Treating Lymphedema” (Celltaxis, LLC, priority 2021, published 2024).
Entries after “also recorded” stand apart in the source; their conditions may differ.

How the values were obtained:
LTA4H aminopeptidase [1] = target: T1, LTA4H aminopeptidase (Homo sapiens (Human), UniProt P09960); conditions: read-out: Aminopeptidase IC50 ± SEM; cited from earlier work
LTA4H epoxide hydrolase = LTA4H epoxide hydrolase (Homo sapiens (Human), UniProt P09960); conditions: read-out: EH (Epoxide Hydrolase) IC50 ± SEM; cited from earlier work
LTA4H epoxide hydrolase, sequence (P09960 whole entry): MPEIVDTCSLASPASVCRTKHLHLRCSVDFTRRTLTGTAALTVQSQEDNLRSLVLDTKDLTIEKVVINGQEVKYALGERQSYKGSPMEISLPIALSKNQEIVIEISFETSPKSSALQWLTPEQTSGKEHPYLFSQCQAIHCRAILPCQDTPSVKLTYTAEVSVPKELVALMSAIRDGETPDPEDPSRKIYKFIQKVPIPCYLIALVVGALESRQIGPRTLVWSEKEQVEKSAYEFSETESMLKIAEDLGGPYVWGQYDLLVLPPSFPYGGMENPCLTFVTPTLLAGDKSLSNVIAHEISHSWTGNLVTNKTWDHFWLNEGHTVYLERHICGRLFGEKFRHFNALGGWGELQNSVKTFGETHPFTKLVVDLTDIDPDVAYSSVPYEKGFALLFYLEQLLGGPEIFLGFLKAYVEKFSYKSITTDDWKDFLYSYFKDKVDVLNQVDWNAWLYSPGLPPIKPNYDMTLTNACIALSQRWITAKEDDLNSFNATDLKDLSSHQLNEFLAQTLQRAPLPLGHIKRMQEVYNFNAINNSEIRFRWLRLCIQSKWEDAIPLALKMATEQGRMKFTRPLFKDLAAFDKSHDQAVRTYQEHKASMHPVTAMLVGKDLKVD

[2] = test system: lymphedema of the lower limb; conditions: Phase 2, lymphedema of the lower limb; cited from earlier work
[3] = test system: experimental acquired lymphedema; conditions: cited from earlier work
LTA4H aminopeptidase [4] = target: T1, LTA4H aminopeptidase; conditions: Bhatt et al. (2017); Inoi et al. (1995); cited from earlier work
aminopeptidases = conditions: Bhatt et al. (2017); Inoi et al. (1995); cited from earlier work
human lymphedema = conditions: adult lymphedema subjects, open-label and placebo-controlled pilot; cited from earlier work

T1 sequence (P09960 whole entry): as above

Row | SMILES | IC50 (LTA4H aminopeptidase [1]) | also measured
1 | CC(=O)Oc1ccc(/C=C/c2cc(OC(C)=O)cc(OC(C)=O)c2)cc1 [Compound 4] | > 100 µM | 
2 | COc1cc(O)cc(CCc2ccc(O)cc2)c1 [Compound 6] | > 100 µM | 
3 | CCOc1cc(O)cc(CCc2ccc(O)cc2)c1 [Compound 7] | > 100 µM | 
4 | COc1cc(O)cc(CCc2cccc(O)c2)c1 [Compound 8] | > 100 µM | 
5 | COc1cc(O)cc(CCc2ccccc2O)c1 [Compound 9] | > 100 µM | 
6 | O=C(Cc1ccc(O)cc1)c1ccc(O)cc1O [Compound 10] | > 100 µM | 
7 | O=c1c(-c2ccc(O)cc2)coc2cc(O)ccc12 [Compound 11] | > 100 µM | 
8 | O=c1c(-c2ccc(O)cc2)coc2c(O)cccc12 [Compound 12] | 62.7 ± 13.3 µM | IC50 (LTA4H epoxide hydrolase): 7.3 ± 0.8 µM
9 | O=c1c(-c2ccccc2)coc2cc(O)ccc12 [Compound 13] | > 100 µM | 
10 | O=c1c(-c2ccc(O)cc2)coc2c3c(ccc12)OCO3 [Compound 14] | 20.6 ± 3.3 µM | IC50 (LTA4H epoxide hydrolase): 20.6 ± 24 µM
11 | Cc1ccc2c(=O)c(-c3ccc(O)cc3)coc2c1O [Compound 15] | 69.2 ± 10.9 µM | 
12 | CC(C)C[C@H](NC(=O)[C@@H](O)[C@H](N)Cc1ccccc1)C(=O)O [Ubenimex] |  | improvement in skin thickness, limb volume and bioimpedance over placebo [2]: did not identify an improvement; edema, lymphatic function, lymphatic architecture ([3]; murine model of lymphedema): reversed edema, improved lymphatic function, and restored lymphatic architecture; LTA4H selectivity (LTA4H aminopeptidase [4]): non-selective LTA4H inhibitor; aminopeptidase inhibition spectrum (aminopeptidases): broad spectrum aminopeptidase inhibitor
13 | CC(C(=O)O)c1cccc(C(=O)c2ccccc2)c1 (stereo not shown) [ketoprofen] |  | lymphedema disease burden ([3]; mice, systemic administration): documented reversal of disease burden; also recorded: disease burden was reversed; skin thickness and cutaneous histopathology (human lymphedema): salutary effects; also recorded: improve skin thickness
